Assays:
Type in all cases: physicochemical
[1] = Solubility study of DOT derivatives in nail polish (supersaturated solution, quantitative 1H NMR); details: for Solubility (wt % in polish): nail polish (clear topcoat), supersaturated solution filtered through 0.25 μm PTFE, quantitative 1H NMR; for Notes: solubility / appearance in nail polish solution: standard nail polish solution
Procedure: The solubility of various DOT derivatives in nail polish was observed by generating a supersaturated solution of the compounds in nail polish (clear topcoat). The supersaturated solution was filtered through a 0.25 μm PTFE syringe filter, and a known mass of an internal NMR standard (bis-1,4-trimethylsilylbenzene) was added. The amount of the compound that was dissolved in the nail polish was then determined by quantitative ^1H NMR. The solubility was taken as the amount of the weight fraction of the compound dissolved in nail polish in a supersaturated solution.

[2] = Disappearance of visible absorbance (yellowness) of polymer compositions under UV irradiation, image analysis in ImageJ; details: upon polymerization
Procedure: In some embodiments, the polymer composition is prepared by polymerizing the first, second, and third monomers. In certain embodiments, the third monomer is added subsequently to a mixture of at least the first and second monomers. When added to the polymer composition, the third monomer may contribute a visible absorbance that obscures the intended color of the polymer. […] In some embodiments, UV irradiation initiates the polymerization process. The disappearance of the visible absorbance can be measured by image analysis in ImageJ. […] As shown, the visible absorbance of polymer compositions with concentrations of 1, 2, and 5 wt % 2SiPr-DOT disappears after 20 minutes of UV irradiation. Compositions with lower concentrations show a disappearance of viable absorbance between about 5 and about 10 minutes of UV irradiation.

[3] = Bench stability noted for DOT derivatives

Structure (SMILES)	Solubility (wt % in polish) [1] [wt % in polish]	Solubility in nail polish, comparison in words ([1]; nail polish, versus DOT or 2S^sBu-DOT)	Notes: solubility / appearance in nail polish solution [1]	Colour contributed to the polymer (visible absorbance) [2]	Notes: bench stability [3]
CC(C)Sc1ccc2c(c1)-c1ccccc1COC2=S [2S^iPr-DOT, 2-(isopropylthio)dibenzo[c,e]oxepine-5(7H)-thione]	7.64	superior solubility in nail polish over DOT or 2S^sBu-DOT	Yellow crystalline solid; shows superior solubility in standard nail polish solution	does not contribute a permanent color	
S=C1OCc2ccccc2-c2ccccc21 [DOT, dibenzo[c,e]oxepine-5(7H)-thione, reference compound]	2.23				
CCC(C)Sc1ccc2c(c1)-c1ccccc1COC2=S (centres unmarked) [2S^sBu-DOT]	2.00		cloudy and inhomogeneous in nail polish solution		not bench stable
